Each block holds one molecule with its values, some of them ahead of it.
How the values were obtained:
[1] = biological target: T1, TeCphA1 (Trichodesmium erythraeum, UniProt Q113V7); experiment: phosphate release, molybdenum blue colorimetry; Michaelis-Menten fit; type: biochemical; conditions: one substrate varied; L-aspartate 5 mM, L-arginine 0.5 mM, (β-Asp-Arg)4 2 mM; 20 mM MgCl2, pH 8.2, 30°C; two ATP sites (G and M domains)
T1 construct: gene Tery_1965; full-length, C-terminal His6 tag (pET-22b(+), NdeI/XhoI), E. coli BL21(DE3); D2 homotetramer; N (1-161), G (162-487), M (488-876) domains

[2] = biological target: T1, TeCphA1; experiment: cryo-EM structure, […] Å; type: binding; conditions: 4 mM ATPγS, 20 mM MgCl2, pH 8.2; G and M domain sites; also in substrate-bound 7WAE (C1) and 7WAF (C2)
[3] = biological target: T1, TeCphA1; experiment: cryo-EM structure, […] Å (C1); type: binding; conditions: complex with ATPγS, (β-Asp-Arg)4, Mg2+; 100 mM L-aspartate, pH 8.2; G domain site, seen in chain D
[4] = biological target: cyanophycin synthetase (CphA1) from Trichodesmium erythraeum IMS101 (Trichodesmium erythraeum IMS101); experiment: cryo-EM structure; single-particle cryo-EM of TeCphA1 in the apo, ATPγS-bound and substrate-bound states; 2-12 μM TeCphA1, Tris-HCl pH 8.0-8.2
[5] = substrate: N[C@@H](CC(=O)O)C(=O)O; experiment: purified protein; conditions: one substrate varied, other substrates at ATP 4 mM, L-arginine 0.5 mM, (β-Asp-Arg)4 2 mM, 20 mM MgCl2, 20 mM KCl, pH 8.2, 30°C, positively cooperative, Hill fit

Molecule: Nc1ncnc2c1ncn2[C@@H]1O[C@H](COP(=O)(O)OP(=O)(O)OP(=O)(O)O)[C@@H](O)[C@H]1O [ATP]
apparent Km [1]: we have determined the apparent Km value for ATP

Molecule: Nc1ncnc2c1ncn2[C@@H]1O[C@H](COP(=O)(O)OP(=O)(O)OP(O)(O)=S)[C@@H](O)[C@H]1O [ATPγS]
cryo-EM structure, 2.96 Å [2]: 7WAD for TeCphA1 bound with ATPγS

Molecule: N[C@@H](CC(=O)O)C(=O)O [L-aspartate]
cryo-EM structure, 2.64 Å (C1) [3]: the substrate aspartate was observed only in one protomer (chain D)

stoichiometry N [4]: 4
Molecule: cyanophycin synthetase (CphA1) from Trichodesmium erythraeum IMS101 (enzyme)

B1: TeCphA1 (Trichodesmium erythraeum IMS101) (protein)
chain: MKILKLQTLRGPNYWSIHRHKLVVMRLDLEDLYEKYTSDIPGFYKGLTEVLPSLVEHLCSPGVKGGFLTRVEKGTLIGHVIEHVAIELQELAGMPVGFGRTRETSTTGVFQVVIEYENEQAGRYAARAAVRLCQSIVDTGTYPATELQQDLEDLKELKNQASLGPSTEAIVKEAEARGIPWTQLGARFMIQFGYGVNQKKIQATLSNQTGILGVELACDKEGTKRILKDAGVPVPRGTVARYFDELQDAIEYVGGYPIVIKPLDGNHGRGITIDVKNWQEAEEAYDLARKASKTKTVIVERYYTGKDHRVLVVNGKVVAVAERVPAHVVGNGKSTIAELIEETNRDPQRGDGHDNILTRITVDKSALDILGKQGYSIDSIPLKGKKCFLRATANLSTGGIAVDRTDEIHPENVWLLSRVAKIIGLDIAGIDVVTEDISQPLREVEGVIVEVNAAPGFRMHVAPSRGLARNVAGAVMDMLFPGSKNGRIPILSVTGTNGKTTTTRLLAHIIKQTGKVVGYTTTDGTYIGEYLAETGDNTGPQSAHLILSDPTVEVAVLETARGGILRSGLGFSSCEVGIVLNVTADHLGIGDIDTIEQLAKLKSVVAESVMPKGYAVLNAEDPLVAAMADRVKGQVAYFSMDPNNELLLRHTEAGGLAAIYENGYISILKGDWTLRIEKAVNVPITMAGKAPFMIANALAACLAVFTQGVKIEHIRKGLSTFVASVDQTPGRMNMFNMGSYHALVDYAHNPASYEALGGFVRNWPGKRIGVVGGPGDRRDEDFVSLGELAADIFDEIIIKEDDDTRGRPRGNAAELICQGVKQFLNGIKNSESKATYESILDETAAINTALDRAPIDGLVVILPESVNRAISLIEGRHVIQDIELLQDSQREPKDQEVLKSSI
K0.5 [5]: 18.0 ± 1.1 mM

From publication PMC9427784, “Structural bases for aspartate recognition and polymerization efficiency of cyanobacterial cyanophycin synthetase” (Nature Communications, 2022)
